Measured values from PubChem BioAssay (NCI).
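Each compound was tested at five concentrations against cells in 96-well plates for 48 hours. TGI: concentration producing complete growth inhibition.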

Experiments:
Assay in all cases: NCI anticancer screen, dose series, 48 h
[1] = test system: BT-549 breast
[2] = test system: DU-145 prostate
[3] = test system: HOP-62 NSCLC
[4] = test system: HOP-92 NSCLC
[5] = test system: K-562 leukemia
[6] = test system: KM12 colon
[7] = test system: MCF7 breast
[8] = test system: MOLT-4 leukemia
[9] = test system: NCI-H460 lung
[10] = test system: NCI-H522 lung
[11] = test system: OVCAR-4 ovarian
[12] = test system: SF-268 CNS
[13] = test system: TK-10 renal
[14] = test system: U251 CNS
[15] = test system: UACC-257 melanoma
[16] = test system: UACC-62 melanoma
[17] = test system: UO-31 renal

Compound | TGI [1] [µM] | TGI [2] [µM] | TGI [3] [µM] | TGI [4] [µM] | TGI [5] [µM] | TGI [6] [µM] | TGI [7] [µM] | TGI [8] [µM] | TGI [9] [µM] | TGI [10] [µM] | TGI [11] [µM] | TGI [12] [µM] | TGI [13] [µM] | TGI [14] [µM] | TGI [15] [µM] | TGI [16] [µM] | TGI [17] [µM]
Cc1cc(C)c(S(=O)(=O)N(CCCCCCN)OCCCN)c(C)c1 | 33.3 | 31.3 | 46 | 29.9 | > 100 | 32.1 | 37.3 | 34.4 | 31.6 | 27.3 | 46.2 | 36.3 | 29.4 | 32.6 | 29.7 | 40 | 43.2
N#CC(c1ccccc1)N(CCc1ccccc1)C(=O)c1ccccc1 (stereo not given) | > 100 | > 100 | > 85.8 | 59.7 | > 100 | > 100 | > 100 | > 100 | > 100 | > 100 | > 100 | > 86.5 | > 100 | > 100 | > 100 | > 100 | > 100
C=C(CN(C)C)C(=O)c1ccc(C)cc1C | 12.7 | 33.5 | 47.5 | 10.4 | 9.74 | 31 | 13.9 | 2.25 | 46.9 | 14.4 | 33.5 | 35.4 | 22.2 | 47.8 | 24.8 | 31.5 | 22.3
C[N+]1(C)CCOC(O)(c2ccccc2)C1 (stereo not given) | > 100 | > 100 | > 100 | > 100 | > 100 | > 100 | > 100 | > 100 | > 100 | > 100 | > 100 | > 100 | > 100 | > 100 | > 100 | > 100 | > 100
c1ccc(CN2CCCN3CCN(CCCN(Cc4ccccc4)CC3)CC2)cc1 | > 100 | > 100 | > 100 | > 100 | > 100 | > 100 | > 100 | > 100 | > 100 | > 100 | > 100 | > 100 | > 100 | > 100 | 68.5 | > 100 | > 100
CN(CCCCN1CCCC1)CCCCN(C)C(=O)Cc1ccc(Cl)c(Cl)c1 | 36.7 | 72 | 34.8 | 17.5 | 10.5 | 26.1 | 28.3 | 22.1 | 30.6 | 27.7 | 33.9 | 39.8 | 32.6 | 27.8 | 6.22 | 12.3 | 3.31
COc1ccc(C2C3=C(COC3=O)OC(C)(C)Oc3cc4c(cc32)OCO4)cc1 (stereo not given) | 89.3 | > 100 | > 100 | > 65.8 | > 61.6 | > 81 | > 100 | > 83.8 | > 92.6 | > 69.5 | > 100 | > 100 | 97 | > 100 | > 100 | > 66.6 | 98.7
CC(C)(Cl)C(Br)CCC(CBr)=C(Cl)CCl (mixture of isomers) | 4.14 | > 10 | > 6.85 | 3.5 | 3.75 | 4.1 | 4.79 | 1.96 | > 10 | 3.22 | > 5.87 | 5.67 | > 5.76 | 3.16 | 4.89 | 3.71 | 3.96
CCOC(=O)c1ccc(NC(=O)O/N=C(/Cl)C(C)C)cc1 | 32.7 | > 67.2 | 32.2 | 3.7 | 3.52 | 35.9 | 21.3 | 4.63 | 38.3 | 3.85 | 28.4 | 34.8 | 33.5 | 36.3 | 32 | 38.2 | 31.9
C=C1C(=O)OC2/C=C(\C)C(=O)CC3OC(C)(C)OC3(C)CC(OC(=O)/C(C)=C/C)C12 (stereo not given) | 26.8 | 45.1 | > 100 | 38.1 | > 60.9 | 38 | > 47.1 | 37.2 | 46.2 | 9.82 | 41.5 | > 61.3 | 27.9 | > 75.2 | 31.5 | 27.8 | 29.3
CC(=O)Nc1ccc(-c2nc3ccccc3s2)cc1Cl | > 100 | > 92.4 | > 100 | > 100 | > 100 | > 100 | > 100 | > 100 | > 100 | > 100 | > 100 | > 100 | 0.445 | > 100 | > 100 | > 100 | > 100
COc1cc(/C=C/C=C2\CCC/C(=C\C=C\c3ccc(O)c(OC)c3)C2=O)ccc1O | 60.5 | > 100 | 52.7 | 44.9 | > 100 | 97.4 | 36 | 10.4 | 57.7 | 3.39 | > 100 | 40.4 | 52 | > 100 | 31.4 | 31.6 | 39.5
Cc1ccc(C(=O)OC(C)C)cc1N=NN(C)C | > 100 | > 100 | > 100 | > 100 | > 100 | > 100 | > 100 | > 100 | > 100 | > 100 | > 100 | > 100 | > 100 | > 100 | 81.9 | > 100 | > 100
O=C1N(CN2CCOCC2)CN(CN2CCOCC2)C(=O)N1Cc1ccc(-c2ccc(CN3C(=O)N(CN4CCOCC4)CN(CN4CCOCC4)C3=O)cc2)cc1 | 39.1 | 40.1 | > 57.8 | 36.4 | 69 | 77.3 | > 100 | > 100 | 54.5 | 35.4 | 39.3 | 59.3 | 43.4 | > 70.8 | 37.9 | 37.7 | 40.6
CCOC(=O)NC(Nc1ccc(F)c(F)c1)(C(=O)OCC)C(F)(F)F (stereo not given) | > 100 | > 100 | > 100 | > 100 | > 100 | > 100 | > 100 | > 100 | > 100 | > 100 | > 100 | > 100 | > 100 | > 100 | > 100 | > 100 | > 100
N#C/C(=C\c1ccc(F)cc1)c1nc2ccccc2c(=O)[nH]1 | > 100 | > 100 | > 100 | > 100 | > 100 | > 100 | > 100 | > 100 | > 100 | > 100 | > 100 | > 100 | > 100 | > 100 | > 100 | > 100 | > 100
CC(O)CCNC(=O)Nc1c(C(F)(F)F)cc(-c2ccccc2)[nH]c1=O (stereo not given) | > 100 | > 100 | > 100 | > 100 | > 100 | > 100 | > 100 | > 100 | > 100 | > 100 | > 100 | > 100 | > 100 | > 100 | > 100 | > 100 | > 100
Cc1ccc(-c2cn3c(nc4ccccc43)c(-c3ccccc3)n2)cc1 | > 77 | > 100 | 43.7 | 56.4 | > 100 | > 100 | > 100 | > 100 | > 100 | > 100 | > 100 | > 96.2 | > 76.5 | > 66.6 | > 100 | > 72.5 | > 73.9
CC1=C(C(=O)NNC(=O)C(N)=O)CC(C(=O)NNC(=O)C(N)=O)=C(C)N1 | > 100 | > 100 | > 100 | > 100 | > 100 | > 100 | > 100 | > 100 | > 100 | > 100 | > 100 | > 100 | > 100 | > 100 | > 100 | > 100 | > 100
N#Cc1nc(Sc2cnsn2)c(Sc2cnsn2)nc1C#N | 39.2 | 35.5 | 42.4 | > 70.5 | > 81.8 | 40.4 | > 59.1 | > 30.1 | > 60.9 | 8.53 | 61.1 | 40.6 | 12.1 | > 90.1 | 39 | 32.5 | 65.6
